In patent US12584101B2, “Compositions and method of use for H5 competent Bifidobacterium longum subsp. Infantis” (INFINANT HEALTH, INC., priority 2018, dated 2026):

Tested on: Blon_0881 and Blon_2343
Experiment: qPCR gene expression of Blon_0881 and Blon_2343 relative to Blon_0393 (activation)
Type: cell-based, B. infantis
Conditions: 5, 10, 15 and 20 g/L of NAG, rest glucose to 20 g/L; stationary phase
Protocol: In some embodiments, gene activation relates to Blon_0881 and Blon_2343 and their expression is greater than 1; that is, when the delta delta cycle threshold (2^ΔΔCt) is greater than 1, DDCT is calculated using Blon_0393, or another constitutively expressed gene as a reference. The result (activation) is the fold change (2^ΔΔCt>1) of gene expression. Determined based on the double delta CT (2^ΔΔCt) method (Livak K and Schmittgen T. (2001) Analysis of relative gene expression data using real-time quantitative PCR and the 2(−Delta Delta C(T)) Method. Methods: 25: 402-8). In other embodiments, other genes from Table 1 are used in addition to Blon_0881 and Blon_2343.
A series of fermentations were conducted where B. infantis was grown on various concentrations of NAG and glucose. MRS broth was prepared without a carbon source. The carbon source was added at 2% of the media or 20 g/L. The carbon source was varied according to Table 5. The cells were grown to the stationary phase and spun down. The supernatant was removed and the cells lysed. RNA was extracted. The cells were tested for increase in gene expression of Blon_0881 and Blon_2343 by qPCR relative to Blon_0393. The 2^ΔΔCt was greater than 1 confirming activation for 5, 10, 15 and 20 g/L of NAG. […]

Question: “N-acetyl-glucosamine/galactosamine (NAG)” was tested. Which “2^ΔΔCt of Blon_0881 and Blon_2343 relative to Blon_0393” value did it give?
Answer: greater than 1
